Consider seven compounds from US20250353891A1 (MEDIMMUNE LIMITED, priority 2022, published 2025).

The target of experiment [1] is human GLP-1 receptor (hGLP-1R) (Homo sapiens, UniProt P43220). In words: cAMP production (HTRF) in CHO cells expressing hGLP-1R. It counts as cell-based. The arrangement: expressed in transfected cells. Particulars: for pEC50: cAMP in CHO hGLP-1R cells, geometric mean, read-out: hGLP-1R EC50; for % Relative Potency Ratio: % GLP-1R activity relative to GLP-1 / % GlucR activity relative to glucagon. The method, boiled down: (§1)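 Cells were resuspended in assay buffer at batch-optimized density, typically 1×10^5 cells/mL for hGLP-1R and 2×10^5 cells/mL for hGCGR. After 30 min incubation at room temperature with compound, cAMP was measured by two-step HTRF. EC50 values came from 4-parameter logistic fits of % Delta F.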
A general note: Cyclic AMP is a second messenger, typically raised through Gs and lowered through Gi signalling.

Experiment [2] deals with human glucagon receptor (hGCGR) (Homo sapiens, UniProt P47871). In words: cAMP production (HTRF) in CHO cells expressing hGCGR. It counts as cell-based. Further details: expressed in transfected cells. Particulars: cAMP in CHO hGCGR cells, geometric mean, read-out: hGluc-R EC50. In a few lines: as §1
Setting [3] is: Table 6, peptides modified at position 17.
Where [4] appears, read: Table 7, peptides modified at position 20.

SMILES strings stand for the structures. pEC50: −log10 of the molar value. Read-outs that look alike come from different tables or passages of the source. Starred links: 1 amine or outer side, 2 acyl side, 3 side chain; linkers in the order of their positions; H or OH if unused. Non-standard residues stand in square brackets, D forms with d. Residues, ends and D or L forms follow the SMILES beside them. Groups on a side chain read outwards from the residue. *: point of attachment. C18 diacid = O=C(O)CCCCCCCCCCCCCCCCC(=O)*; γGlu = O=C(O)[C@H](CCC(=O)[*:2])N[*:1]; Stearoyl = CCCCCCCCCCCCCCCCCC(=O)*; αMeF = C[C@](N)(Cc1ccccc1)C(=O)O; PEG4 = NCCOCCOCCOCCOCCC(=O)O; AEEA = NCCOCCOCC(=O)O; Aib = CC(C)(N)C(=O)O

Sequence of human glucagon receptor (hGCGR) (P47871 26-477): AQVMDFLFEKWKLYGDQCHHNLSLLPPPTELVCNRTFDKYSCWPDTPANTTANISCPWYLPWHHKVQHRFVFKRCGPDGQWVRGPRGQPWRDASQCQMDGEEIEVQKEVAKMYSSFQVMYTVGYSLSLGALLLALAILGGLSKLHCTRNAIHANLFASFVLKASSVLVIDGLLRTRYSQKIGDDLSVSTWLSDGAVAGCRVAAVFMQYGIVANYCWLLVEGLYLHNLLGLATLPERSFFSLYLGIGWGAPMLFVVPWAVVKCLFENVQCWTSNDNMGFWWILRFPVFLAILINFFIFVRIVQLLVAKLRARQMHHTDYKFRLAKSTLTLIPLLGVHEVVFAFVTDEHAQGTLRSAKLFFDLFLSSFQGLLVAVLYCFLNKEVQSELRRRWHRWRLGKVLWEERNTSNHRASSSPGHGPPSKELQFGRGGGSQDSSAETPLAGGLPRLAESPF
Sequence of human GLP-1 receptor (hGLP-1R) (P43220 24-463): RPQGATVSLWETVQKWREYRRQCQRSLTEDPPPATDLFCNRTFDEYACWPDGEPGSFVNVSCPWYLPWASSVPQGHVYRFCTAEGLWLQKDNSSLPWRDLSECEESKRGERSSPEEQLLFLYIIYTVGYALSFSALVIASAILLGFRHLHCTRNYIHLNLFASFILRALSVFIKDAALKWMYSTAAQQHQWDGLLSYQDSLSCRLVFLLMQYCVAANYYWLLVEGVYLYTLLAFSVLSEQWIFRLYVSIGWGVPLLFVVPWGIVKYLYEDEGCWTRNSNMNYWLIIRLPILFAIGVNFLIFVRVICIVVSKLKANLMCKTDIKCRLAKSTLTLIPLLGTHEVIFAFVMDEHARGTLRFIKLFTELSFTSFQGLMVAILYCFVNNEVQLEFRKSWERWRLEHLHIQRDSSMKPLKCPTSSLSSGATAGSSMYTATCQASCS

Turning to `CC(C)C[C@H](NC(=O)[C@H](Cc1c[nH]c2ccccc12)NC(=O)[C@H](CCCNC(=N)N)NC(=O)[C@@H](NC(=O)[C@H](Cc1ccccc1)NC(=O)[C@H](CC(=O)O)NC(=O)[C@H](CCC(N)=O)NC(=O)[C@H](C)NC(=O)[C@H](CCCNC(=N)N)NC(=O)[C@H](CCCCNC(=O)COCCOCCNC(=O)COCCOCCNC(=O)CC[C@H](NC(=O)CCCCCCCCCCCCCCCCC(=O)O)C(=O)O)NC(=O)[C@@H](NC(=O)[C@H](CC(=O)O)NC(=O)[C@H](CC(C)C)NC(=O)[C@](C)(Cc1ccccc1)NC(=O)[C@H](CCCCN)NC(=O)[C@H](CO)NC(=O)[C@@H](NC(=O)[C@H](CC(=O)O)NC(=O)[C@H](CO)NC(=O)[C@@H](NC(=O)[C@H](Cc1ccccc1)NC(=O)[C@@H](NC(=O)CNC(=O)[C@H](CCC(N)=O)NC(=O)C(C)(C)NC(=O)[C@@H](N)Cc1c[nH]cn1)[C@@H](C)O)[C@@H](C)O)C(C)C)[C@@H](C)O)C(C)C)C(=O)N[C@@H](CC(C)C)C(=O)NC(C)(C)C(=O)N[C@@H](CCC(=O)O)C(=O)O` [Peptide 192] (H-H[Aib]QGTFTSDVSK[αMeF]LDTK([AEEA-AEEA-γGlu-C18 diacid])RAQDFVRWLL[Aib]E-OH; N-terminus assumed), the pEC50 (usually the negative decadic logarithm of the EC50, by convention in mol/L) in experiment [1] (setting [3]) was 9.97; in experiment [2] (setting [3]), 9.64. Further, the “% Relative Potency Ratio” value in experiment [1] (Table 6) is 4.2.

Take `CC(C)C[C@H](NC(=O)[C@H](Cc1c[nH]c2ccccc12)NC(=O)[C@H](C)NC(=O)[C@@H](NC(=O)[C@H](Cc1ccccc1)NC(=O)[C@H](CC(=O)O)NC(=O)[C@H](CCC(N)=O)NC(=O)[C@H](C)NC(=O)[C@H](CCCNC(=N)N)NC(=O)[C@H](CCCCNC(=O)COCCOCCNC(=O)COCCOCCNC(=O)CC[C@H](NC(=O)CC[C@H](NC(=O)CCCCCCCCCCCCCCCCCCC(=O)O)C(=O)O)C(=O)O)NC(=O)[C@@H](NC(=O)[C@H](CC(=O)O)NC(=O)[C@H](CC(C)C)NC(=O)[C@](C)(Cc1ccccc1)NC(=O)[C@H](CCCCN)NC(=O)[C@H](CO)NC(=O)[C@@H](NC(=O)[C@H](CC(=O)O)NC(=O)[C@H](CO)NC(=O)[C@@H](NC(=O)[C@H](Cc1ccccc1)NC(=O)[C@@H](NC(=O)CNC(=O)[C@H](CCC(N)=O)NC(=O)C(C)(C)NC(=O)[C@@H](N)Cc1c[nH]cn1)[C@@H](C)O)[C@@H](C)O)C(C)C)[C@@H](C)O)C(C)C)C(=O)N[C@@H](CCC(=O)O)C(=O)N[C@@H](C)C(=O)NCC(=O)NCC(=O)O` [Peptide 413]: the results for the pEC50 in experiment [1] (setting [3]) and in experiment [2] (setting [3]) were 9.39 and 8.99, respectively. For the same compound, in experiment [1] (Table 6), the “% Relative Potency Ratio” value was found to be 5.0.

On to `CC(C)C[C@H](NC(=O)[C@H](Cc1c[nH]c2ccccc12)NC(=O)[C@H](CCC(N)=O)NC(=O)[C@@H](NC(=O)[C@H](Cc1ccccc1)NC(=O)[C@H](CC(=O)O)NC(=O)[C@H](CCCCNC(=O)COCCOCCNC(=O)COCCOCCNC(=O)CC[C@H](NC(=O)CCCCCCCCCCCCCCCCC(=O)O)C(=O)O)NC(=O)[C@H](C)NC(=O)[C@H](CCCNC(=N)N)NC(=O)[C@H](CCCNC(=N)N)NC(=O)[C@H](CO)NC(=O)[C@H](CC(=O)O)NC(=O)[C@H](CC(C)C)NC(=O)[C@](C)(Cc1ccccc1)NC(=O)[C@H](CCCCN)NC(=O)[C@H](CO)NC(=O)[C@@H](NC(=O)[C@H](CC(=O)O)NC(=O)[C@H](CO)NC(=O)[C@@H](NC(=O)[C@H](Cc1ccccc1)NC(=O)[C@@H](NC(=O)CNC(=O)[C@H](CCC(N)=O)NC(=O)C(C)(C)NC(=O)[C@@H](N)Cc1c[nH]cn1)[C@@H](C)O)[C@@H](C)O)C(C)C)C(C)C)C(=O)N[C@@H](CC(C)C)C(=O)N[C@@H](CCC(=O)O)C(=O)NC(C)(C)C(=O)NCC(=O)O` [Peptide 332], for which the pEC50 in experiment [1] (setting [4]) was 10.11; in experiment [2] (setting [4]), 10.23. In experiment [1] (Table 7), the “% Relative Potency Ratio” value is 1.5.

As to `CC(C)C[C@H](NC(=O)[C@H](Cc1c[nH]c2ccccc12)NC(=O)[C@H](CCCNC(=N)N)NC(=O)[C@@H](NC(=O)[C@H](Cc1ccccc1)NC(=O)[C@H](CC(=O)O)NC(=O)[C@H](CCC(N)=O)NC(=O)[C@H](C)NC(=O)[C@H](CCCNC(=N)N)NC(=O)[C@H](CCCCNC(=O)COCCOCCNC(=O)COCCOCCNC(=O)CC[C@H](NC(=O)CCCCCCCCCCCCCCCCCCC(=O)O)C(=O)O)NC(=O)[C@H](CCCCN)NC(=O)[C@H](CC(=O)O)NC(=O)[C@H](CC(C)C)NC(=O)[C@](C)(Cc1ccccc1)NC(=O)[C@H](CCCCN)NC(=O)[C@H](CO)NC(=O)[C@@H](NC(=O)[C@H](CC(=O)O)NC(=O)[C@H](CO)NC(=O)[C@@H](NC(=O)[C@H](Cc1ccccc1)NC(=O)[C@@H](NC(=O)CNC(=O)[C@H](CCC(N)=O)NC(=O)C(C)(C)NC(=O)[C@@H](N)Cc1c[nH]cn1)[C@@H](C)O)[C@@H](C)O)C(C)C)C(C)C)C(=O)N[C@@H](CC(C)C)C(=O)N[C@@H](CCC(=O)O)C(=O)NC(C)(C)C(=O)NCC(N)=O` [Peptide 453], the figures for the pEC50 in experiment [1] (setting [3]) and in experiment [2] (setting [3]) were 9.77 and 9.79, respectively. In experiment [1] (Table 6), the “% Relative Potency Ratio” value is 1.9.

Consider `CCCCCCCCCCCCCCCCCC(=O)N[C@@H](CCC(=O)N[C@@H](CCC(=O)NCCOCCOCCOCCOCCC(=O)NCCCC[C@H](NC(=O)[C@H](CO)NC(=O)[C@H](CC(=O)O)NC(=O)[C@H](CC(C)C)NC(=O)[C@](C)(Cc1ccccc1)NC(=O)[C@H](CCCCN)NC(=O)[C@H](CO)NC(=O)[C@@H](NC(=O)[C@H](CC(=O)O)NC(=O)[C@H](CO)NC(=O)[C@@H](NC(=O)[C@](C)(Cc1ccccc1)NC(=O)[C@H](CO)NC(=O)CNC(=O)[C@H](CCC(N)=O)NC(=O)C(C)(C)NC(=O)[C@@H](N)Cc1c[nH]cn1)[C@@H](C)O)C(C)C)C(=O)N[C@@H](CCCNC(=N)N)C(=O)N[C@@H](C)C(=O)N[C@@H](CCC(N)=O)C(=O)N[C@@H](CC(=O)O)C(=O)N[C@@](C)(Cc1ccccc1)C(=O)N[C@H](C(=O)N[C@@H](CCC(=O)O)C(=O)NC(C)(C)C(=O)N[C@@H](CC(C)C)C(=O)N[C@@H](CCC(=O)O)C(=O)N[C@@H](C)C(=O)NCC(=O)NCC(N)=O)C(C)C)C(=O)O)C(=O)O` [Peptide 70] (H-H[Aib]QGS[αMeF]TSDVSK[αMeF]LDSK([PEG4-γGlu-γGlu-Stearoyl])RAQD[αMeF]VE[Aib]LEAGG-NH2), for which the values for the pEC50 in experiment [1] (setting [3]) and in experiment [2] (setting [3]) were 11.81 and 10.51, respectively. Further, the “% Relative Potency Ratio” value in experiment [1] (Table 6) was 39.4.

Turning to `CC[C@H](C)[C@H](NC(=O)C(C)(C)NC(=O)[C@H](CCC(N)=O)NC(=O)[C@@H](NC(=O)[C@](C)(Cc1ccccc1)NC(=O)[C@H](CC(=O)O)NC(=O)[C@H](CCCCNC(=O)COCCOCCNC(=O)CCCCCCCCCCCCCCCCC(=O)O)NC(=O)[C@H](C)NC(=O)[C@H](C)NC(=O)[C@H](CCCNC(=N)N)NC(=O)[C@H](CO)NC(=O)[C@H](CC(=O)O)NC(=O)[C@H](CC(C)C)NC(=O)[C@](C)(Cc1ccccc1)NC(=O)[C@H](CCCCN)NC(=O)[C@H](CO)NC(=O)[C@@H](NC(=O)[C@H](CC(=O)O)NC(=O)[C@H](CO)NC(=O)[C@@H](NC(=O)[C@](C)(Cc1ccccc1)NC(=O)[C@H](CO)NC(=O)CNC(=O)[C@H](Cc1c[nH]cn1)NC(=O)C(C)(C)NC(=O)[C@@H](N)Cc1c[nH]cn1)[C@@H](C)O)C(C)C)C(C)C)C(=O)N[C@@H](C)C(=O)N[C@@H](CC(N)=O)C(=O)N[C@H](C(N)=O)[C@@H](C)O` [Peptide 273] (H-H[Aib]HGS[αMeF]TSDVSK[αMeF]LDSRAAK([AEEA-C18 diacid])D[αMeF]VQ[Aib]IANT-NH2), the results for the pEC50 in experiment [1] (setting [4]) and in experiment [2] (setting [4]) were 10.66 and 10.63, respectively. Further, in experiment [1] (Table 7), the “% Relative Potency Ratio” value came to 2.1.

As to `CC(C)C[C@H](NC(=O)[C@H](Cc1c[nH]c2ccccc12)NC(=O)[C@H](CCC(N)=O)NC(=O)[C@@H](NC(=O)[C@H](Cc1ccccc1)NC(=O)[C@H](CC(=O)O)NC(=O)[C@H](CCC(N)=O)NC(=O)[C@H](C)NC(=O)[C@H](CCCNC(=N)N)NC(=O)[C@H](CCCCNC(=O)COCCOCCNC(=O)COCCOCCNC(=O)CC[C@H](NC(=O)CCCCCCCCCCCCCCCCC(=O)O)C(=O)O)NC(=O)[C@H](CO)NC(=O)[C@H](CC(=O)O)NC(=O)[C@H](CC(C)C)NC(=O)[C@](C)(Cc1ccccc1)NC(=O)[C@H](CCCCN)NC(=O)[C@H](CO)NC(=O)[C@@H](NC(=O)[C@H](CC(=O)O)NC(=O)[C@H](CO)NC(=O)[C@@H](NC(=O)[C@H](Cc1ccccc1)NC(=O)[C@@H](NC(=O)CNC(=O)[C@H](CCC(N)=O)NC(=O)C(C)(C)NC(=O)[C@@H](N)Cc1c[nH]cn1)[C@@H](C)O)[C@@H](C)O)C(C)C)C(C)C)C(=O)N[C@@H](CC(C)C)C(=O)NC(C)(C)C(=O)N[C@@H](CCC(=O)O)C(=O)O` [Peptide 34] (H-H[Aib]QGTFTSDVSK[αMeF]LDSK([AEEA-AEEA-γGlu-C18 diacid])RAQDFVQWLL[Aib]E-OH; N-terminus assumed), the pEC50 in experiment [1] (setting [3]) was 10.08; in experiment [2] (setting [3]) it was 9.79. In addition, the “% Relative Potency Ratio” value in experiment [1] (Table 6) turned out to be 3.9.
